Assay [1] addresses T1, human histamine H1 receptor (Homo sapiens, UniProt P35367). As to the kind of experiment: Evaluation of Human H1 Receptor Affinity ([3H]pyrilamine binding). The note with it: inhibition constant Ki, CHO-K1 membrane preparation. Also noted: purchased PerkinElmer Inc; host or cells: CHO-K1. In a few lines: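 Ki values are Cheng-Prusoff conversions of IC50 (Kd 1.1 nM) from radioligand displacement of 1.2 nM [3H]pyrilamine, with 1.0 μM pyrilamine defining nonspecific binding.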

For assay [2], the target named is T2, human histamine H4 receptor (Homo sapiens, UniProt Q9H3N8).
T2 construct: purchased PerkinElmer Inc; host or cells: CHO-K1
T2 sequence (Q9H3N8 whole entry): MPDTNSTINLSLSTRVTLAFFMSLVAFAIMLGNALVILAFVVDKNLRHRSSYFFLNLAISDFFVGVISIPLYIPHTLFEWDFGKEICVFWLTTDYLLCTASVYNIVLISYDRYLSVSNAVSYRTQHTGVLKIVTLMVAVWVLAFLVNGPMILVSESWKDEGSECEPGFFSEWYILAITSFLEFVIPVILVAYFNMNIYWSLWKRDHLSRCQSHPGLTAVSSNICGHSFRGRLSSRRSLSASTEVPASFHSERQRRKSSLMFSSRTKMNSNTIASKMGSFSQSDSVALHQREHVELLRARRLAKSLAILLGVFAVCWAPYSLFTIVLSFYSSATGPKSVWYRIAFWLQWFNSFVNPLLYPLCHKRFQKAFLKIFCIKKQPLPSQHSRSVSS
As to the kind of experiment: Evaluation of Human H4 Receptor Affinity ([3H]histamine binding). The note with it: inhibition constant Ki, CHO-K1 membrane preparation, read-out: Evaluation of H4 Receptor Affinity. In a few lines:
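Radioligand displacement: compound competes with 8.2 nM [3H]histamine at recombinant human H4 receptor in CHO-K1 membranes (Tris-HCl 50 mM pH 7.4, EDTA 1.25 mM; 25 °C, 90 min), with filter-bound radioactivity counted. IC50 was converted to Ki via Cheng-Prusoff (Kd 5.7 nM); 1.0 μM histamine set nonspecific binding.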

The target of assay [3] is T1, human histamine H1 receptor. As to the kind of experiment: Evaluation of Human H1 Receptor Function (GeneBLAzer H1-NFAT-bla HEK 293T cells). It is filed as cell-based. The note with it: histamine 30 nM, read-out: Evaluation of H1 Receptor Function (IC50 value, antagonistic effect). As to the method: Test Example 3: Evaluation of Human H1 Receptor Function
The antagonistic effect was evaluated by the method described below. GeneBLAzer® H1-NFAT-bla HEK 293T-cells (Invitrogen Corporation, recombinant cells expressing the human histamine H1 receptor) were incubated at 37° C. for 30 minutes in the presence of the test compounds dissolved in DMSO in a high glucose Dulbecco's Modified Eagle Medium (GlutaMAX, containing 10% fetal bovine serum, 100 μM nonessential amino acids, 25 mM HEPES, 100 U/mL penicillin, and 100 μg/mL streptomycin), and histamine was added such that the final concentration became 30 nM, followed by further incubation for 4.5 hours. Then, a mixture of LiveBLAzer™ FRET-B/G Loading Kit (Invitrogen Corporation) and Solution D (Invitrogen Corporation) was added, followed by leaving to stand at room temperature for 2 hours under shaded conditions. Thereafter, the fluorescence intensity was measured under two conditions of 400 nm/460 nm and 400 nm/535 nm (excitation light/fluorescence) by using a multilabel counter (EnVision: PerkinElmer Inc.). The 50% inhibitory concentration (IC50 value) was calculated in accordance with (measured value−blank measured value at 400 nm/460 nm)/(measured value−blank measured value at 400 nm/535 nm) of each test sample.

Assay [4] concerns the target T2, human histamine H4 receptor. As to the kind of experiment: Evaluation of H4 Receptor Function ([35S]GTPγS binding). It is filed as biochemical. The note with it: [35S]GTPγS binding, CHO-K1 membrane, 0.1 μM histamine; read-out: Evaluation of H4 Receptor Function (IC50 value, antagonistic effect). Here is the method:
The antagonistic effect was evaluated by the method described below. Membrane preparation from recombinant CHO-K1 cell expressing the human histamine H4 receptor (PerkinElmer Inc.), 10 μM GDP, 0.1 μM histamine, and the compounds dissolved in DMSO were reacted at 30° C. for 20 minutes in a buffering solution containing 20 mM HEPES, pH 7.4, 100 mM NaCl, 10 mM MgCl2, 1 mM DTT, and 1 mM EDTA on an assay plate. Thereafter, SPA beads (Amersham plc) were added, followed by incubation for 60 minutes, and further 0.3 nM [^35S]GTPγS (PerkinElmer Inc.) was added, followed by incubation for 30 minutes.

T1 sequence (P35367 whole entry): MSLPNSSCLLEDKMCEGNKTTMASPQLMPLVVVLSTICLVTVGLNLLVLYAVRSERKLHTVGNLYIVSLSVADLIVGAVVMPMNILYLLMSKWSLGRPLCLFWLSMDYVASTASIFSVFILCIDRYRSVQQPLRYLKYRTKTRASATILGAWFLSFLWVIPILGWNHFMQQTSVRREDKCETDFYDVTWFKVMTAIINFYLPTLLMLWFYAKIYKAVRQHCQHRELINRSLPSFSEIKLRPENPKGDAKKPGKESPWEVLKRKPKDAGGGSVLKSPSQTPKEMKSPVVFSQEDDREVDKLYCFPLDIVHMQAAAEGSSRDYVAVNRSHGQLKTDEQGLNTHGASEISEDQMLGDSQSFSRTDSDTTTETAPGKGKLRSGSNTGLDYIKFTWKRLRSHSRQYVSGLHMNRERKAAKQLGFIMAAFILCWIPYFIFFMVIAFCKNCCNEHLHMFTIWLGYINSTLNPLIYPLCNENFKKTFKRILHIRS

Consider `CN1CCN(c2nc(N)nc3c2CCc2cc(OCc4ccc(F)cc4)ccc2-3)CC1` [Example 196, 8-((4-fluorobenzyl)oxy)-4-(4-methylpiperazin-1-yl)-5,6-dihydrobenzo[h]quinazolin-2-amine], for which the Ki in assay [1] and in assay [2] was < 100 nM each time. Besides, the IC50 in assay [3] and in assay [4] was < 200 nM each time.
Consider `CN1CCN(c2nc(N)nc3c2Cc2ccc(OCc4ccccc4)cc2-3)CC1` [Example 201, 8-(benzyloxy)-4-(4-methylpiperazin-1-yl)-5H-indeno[1,2-d]pyrimidin-2-amine], for which the Ki in assay [1] and in assay [2] was < 100 nM in each case. Moreover, the IC50 in assay [3] and in assay [4] was < 200 nM each time.

For orientation: IC50 means the concentration at which inhibition is half-maximal.

The record behind these values is US20190047966A1, “NOVEL COMPOUND AND PHARMACOLOGICALLY ACCEPTABLE SALT THEREOF” (MEIJI SEIKA PHARMA CO., LTD., priority 2016, published 2019).
